Results reported in patent publication US20220016092A1, “METHODS FOR TREATING SYMPTOMS AND DISORDERS ASSOCIATED WITH LYSOSOMAL STORAGE DISEASES” (GENZYME CORPORATION, priority 2019, published 2022).

Key:
[1] = test system: adult patients with Gaucher disease Type 3; assay: Clinical study in GD-3 patients: safety and tolerability; format: in vivo, human; settings: 15 mg/day + imiglucerase
Protocol: During the study patients were evaluated for safety and tolerability, CSF and plasma biomarkers (glucosylceramide, GL-1; glucosylsphingosine, lyso-GL1), pharmacokinetics, markers for systemic disease (spleen and liver volume measured by magnetic resonance imaging (MRI), platelet count, hemoglobin levels), indicia of interstitial lung disease (high resolution pulmonary computed tomography (CT)), and horizontal saccadic eye movement.

[2] = test system: plasma GL-1, GL-3, and GM3; assay: Study 2: pharmacodynamics in healthy volunteers; format: in vivo, human; settings: healthy adults; all dose groups (5, 10, 20 mg)
Protocol: The study enrolled and randomized 36 healthy adults (19 men and 17 women) (n=9 each to group).
Pharmacodynamic endpoints (plasma GL-1, GL-3, and GM3 concentrations) were assessed on Days 1-5, 8, 11, 13, and 14, at 0 hours […]; and on Day 15, at 24 hours after the Day 14 dose.

[3] = test system: GL-3, lyso-GL-3, GL-1 and GM3; assay: Clinical study in Fabry disease patients: plasma and urine glycosphingolipids; format: in vivo, human; settings: 15 mg/day oral
Protocol: A three-year open-label investigation of Compound 2 in young classic Fabry disease patients was conducted in order to evaluate the long-term safety, pharmacodynamics and exploratory efficacy of Compound 2 in adult male Fabry patients. Eleven subjects enrolled in the study, and seven subjects completed all aspects of the study. All subjects were males diagnosed with classic Fabry disease confirmed by genotype and residual alpha-galactosidase activity below detection levels (9 of the 11 had nonsense mutation in the GLA gene). All subjects had lyso-GL3 levels in plasma of at least 65 ng/mL and had no prior Fabry disease-specific treatment. The median age of subject was 24 years (range 19-37).
Each sample was scored independently by 3 pathologists for the presence of GL-3 inclusions on a four-point scale, and rated as 0 (no/trace), 1 (mild), 2 (moderate), or 3 (severe) according to Eng et al., N. Engl. J. Med. 345:9-16 (2001). A single score per patient per time point was derived by taking the score rated by the majority of the three pathologists. If a majority score could not be derived, then the median score was used (resulting in some fractional scores). […] Pain scores and abdominal symptoms were analyzed at baseline and weeks 12, 26, 52, 104 and 156 using the SF-36 scoring protocol. […]

[4] = test system: GL-3 inclusions in superficial endothelial cell capillaries; assay: Clinical study in Fabry disease patients: GL-3 inclusion volume fraction by electron microscopy; format: in vivo, human; settings: 15 mg/day oral
Source text: In addition to scoring GL-3 skin inclusions by light microscopy, the fraction of the volume of endothelial cell cytoplasm occupied by GL-3 inclusions was estimated using point-counting of electron microscopic images by a masked reader. Images from at least 50 superficial endothelial cell capillaries were obtained using electron microscopy at 7500× magnification. Two-sided t tests were used to evaluate differences between baseline and post-treatment values at each time point.

[5] = test system: GM3 expression in C32 human melanoma cells; assay: GM3 fluorescent-linked immunosorbent assay (FLISA), C32 cells; format: cell-based; settings: 48 hours
Source text: Inhibition of glucosylceramide synthase activity can be measured with one or more assays. A first assay is a microsomal assay that directly measures the conversion of ceramide to glucosylceramide by HPLC. Microsomes are a source of glucosylceramide synthase activity in the microsomal assay. A second assay is a cell based, phenotypic assay that monitors cell surface expression of the downstream lipid GM3 by antibody mediated immunofluorescence. Specific protocols are provided below.
This is a phenotypic assay that measures GM3 expression in B16 mouse melanoma or C32 human melanoma cells following treatment with test compounds. Cell surface GM3 expression is determined by antibody mediated fluorescence.
Compounds are diluted in media and plated in 384 well plates in DMSO. B16 and C32 cells are assayed at densities of 20,000 cells/ml and 62,500 cells/ml, respectively, per well. Each titration curve contains 10 points that are assayed in duplicate on each test run. The plates are incubated for 48 hours at 37° C., 5% CO2, and are then washed once with TBS. Anti-GM3 antibody is added to each well and the plates are then incubated for an additional one hour at room temperature. Plates are subsequently washed twice and incubated for an additional hour with the labeled secondary antibody. Following the final incubation, the plates are washed twice and the fluorescence at λex=D640/20 nm and λem=657 nm is detected on a fluorescent reader.
The results of the microsomal assays are expressed as “GCS IC50”, which represents the concentration of the compound causing 50% inhibition of glucosylceramide synthase activity. The results of the cell-based assays are expressed as “GM3 B16 IC50” or “GM3 C32 IC50” for the B16 assay and the C32 assay, respectively. These values represent the concentration of the compound causing 50% inhibition of GM3 expression on the cell surface.

`CC(C)(NC(=O)O[C@@H]1CN2CCC1CC2)c1csc(-c2ccc(F)cc2)n1` [Compound 2, (S)-quinuclidin-3-yl 2-(2-(4-fluorophenyl)thiazol-4-yl)propan-2-ylcarbamate] was tested, and the Treatment-emergent adverse events ([1]; 26 weeks, all 5 patients) was “no serious or lasting treatment-emergent adverse events”, the “Severity and relatedness of treatment-emergent adverse events” value ([1]; 52 weeks, six patients) was “mild or moderate in severity, and none of which were considered related to treatment with Compound 2 or imiglucerase” and the “Total treatment-emergent adverse events reported” value ([1]; 52 weeks, six patients) was 30. For the same compound, the “Plasma GL-3 over time” value [2] was “decreased with time”, the “Urine GL-3 (mg per mmol urine creatinine), change from baseline” value ([3]; 26 weeks (n = 8)) was -0.25 mg/mmol and the “Plasma GL-1, change from baseline” value ([3]; 26 weeks (n = 9)) was -3.26 µg/mL. The “Plasma GL-3, change from baseline” value ([3]; 26 weeks (n = 9)) was -3.62 µg/mL, the “Plasma GM3, change from baseline” value ([3]; 26 weeks (n = 9)) was -10.77 µg/mL and the “Plasma lyso-GL-3, change from baseline” value ([3]; 26 weeks (n = 9)) was -30.99 ng/mL. The “Plasma GL-1, change from baseline” value ([3]; 52 weeks (n = 7)) was -3.58 µg/mL, the “Plasma GL-3, change from baseline” value ([3]; 52 weeks (n = 7)) was -5.06 µg/mL and the “Plasma GM3, change from baseline” value ([3]; 52 weeks (n = 7)) was -8.84 µg/mL. The “Plasma lyso-GL-3, change from baseline” value ([3]; 52 weeks (n = 7)) was -37.10 ng/mL, the “Urine GL-3 (mg per mmol urine creatinine), change from baseline” value ([3]; 52 weeks (n = 7)) was -0.20 mg/mmol and the “Plasma GL-1, change from baseline” value ([3]; 104 weeks (n = 7)) was -3.70 µg/mL. The “Plasma GL-3, change from baseline” value ([3]; 104 weeks (n = 7)) was -6.32 µg/mL, the “Plasma GM3, change from baseline” value ([3]; 104 weeks (n = 7)) was -9.92 µg/mL and the “Plasma lyso-GL-3, change from baseline” value ([3]; 104 weeks (n = 7)) was -39.84 ng/mL. The “Urine GL-3 (mg per mmol urine creatinine), change from baseline” value ([3]; 104 weeks (n = 7)) was -0.18 mg/mmol, the “Plasma GL-1, change from baseline” value ([3]; 156 weeks (n = 7)) was -3.23 µg/mL and the “Plasma GL-3, change from baseline” value ([3]; 156 weeks (n = 7)) was -6.97 µg/mL. For the same compound, the “Plasma GM3, change from baseline” value ([3]; 156 weeks (n = 7)) was -8.12 µg/mL, the “Plasma lyso-GL-3, change from baseline” value ([3]; 156 weeks (n = 7)) was -48.13 ng/mL and the “Urine GL-3 (mg per mmol urine creatinine), change from baseline” value ([3]; 156 weeks (n = 7)) was -0.18 mg/mmol. For the same compound, the “Plasma GL-3 levels” value ([3]; after 156 weeks) was 1.90 µg/mL, the “Plasma GL-3 reduction compared to agalsidase beta” value ([3]; at 104 weeks (p=0.0351) and 156 weeks (p=0.0081)) was “significantly greater” and the “Drop in mean plasma GL-1 levels” value ([3]; over the 156-week study) was 69%. For the same compound, the “Drop in mean plasma GL-3 levels” value ([3]; over the 156-week study) was 77%, the “Drop in mean plasma GM3 levels” value ([3]; over the 156-week study) was 60% and the “Drop in mean plasma lyso-GL3 levels” value ([3]; over the 156-week study) was 52%. For the same compound, the “Volume fraction (volume of inclusions/total cytoplasmic volume)” value ([4]; 3 months (N = 9)) was 0.29 ± 0.06, the “Volume fraction, Change from baseline” value ([4]; 3 months (N = 9), P 0.74) was −1.9% and the “Volume fraction (volume of inclusions/total cytoplasmic volume)” value ([4]; 3 years (N = 6)) was 0.18 ± 0.03. For the same compound, the “Volume fraction, Change from baseline” value ([4]; 3 years (N = 6), P 0.001) was −38.7%, the “Volume fraction (volume of inclusions/total cytoplasmic volume)” value ([4]; 6 months (N = 8)) was 0.23 ± 0.04 and the “Volume fraction, Change from baseline” value ([4]; 6 months (N = 8), P 0.001) was −21.1%. It also gave an IC50 [5] of 9.6 nM.
